# Key:
# TRPV1 [1] = biological target: T1, TRPV1 (Rattus norvegicus, UniProt O35433); test: Ratiometric Fura-2 calcium imaging in dissociated nodose ganglion (vagal afferent) neurons; format: cell-based; conditions: for effect on AEA-induced increase in cytosolic calcium: AEA 10 μM; for effect on CAP-induced increase in cytosolic calcium: CAP 100 nM
# T1 construct: endogenous in cells; host or cells: dissociated nodose ganglion neurons from male Sprague Dawley rats (primary culture, used within 24 h)
# T1 sequence (O35433 whole entry): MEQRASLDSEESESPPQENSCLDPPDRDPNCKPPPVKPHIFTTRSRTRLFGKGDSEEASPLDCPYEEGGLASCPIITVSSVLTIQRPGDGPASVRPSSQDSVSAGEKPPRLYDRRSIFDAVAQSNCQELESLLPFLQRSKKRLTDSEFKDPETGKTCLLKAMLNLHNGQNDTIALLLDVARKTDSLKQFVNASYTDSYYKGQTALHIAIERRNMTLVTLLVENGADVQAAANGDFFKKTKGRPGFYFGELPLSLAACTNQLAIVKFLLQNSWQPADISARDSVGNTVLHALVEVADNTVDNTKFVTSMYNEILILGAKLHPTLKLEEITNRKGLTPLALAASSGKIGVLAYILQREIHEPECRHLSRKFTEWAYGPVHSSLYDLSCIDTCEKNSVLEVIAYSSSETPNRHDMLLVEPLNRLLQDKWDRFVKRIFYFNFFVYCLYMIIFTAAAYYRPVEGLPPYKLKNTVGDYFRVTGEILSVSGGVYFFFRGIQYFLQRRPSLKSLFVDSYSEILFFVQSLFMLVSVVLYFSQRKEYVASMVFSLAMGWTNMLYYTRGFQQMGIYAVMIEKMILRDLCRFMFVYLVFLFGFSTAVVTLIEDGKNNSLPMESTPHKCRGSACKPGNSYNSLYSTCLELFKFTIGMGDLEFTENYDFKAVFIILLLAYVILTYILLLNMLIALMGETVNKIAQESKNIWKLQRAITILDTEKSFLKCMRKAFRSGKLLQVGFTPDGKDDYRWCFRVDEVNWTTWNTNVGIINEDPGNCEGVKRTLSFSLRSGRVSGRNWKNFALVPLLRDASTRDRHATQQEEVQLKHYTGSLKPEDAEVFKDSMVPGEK
# Experimental: (§1) Nodose ganglia were isolated bilaterally from rats and mice under a deep plane of anesthesia (Ketamine, 25 mg/100 g; with Xylazine, 2.5 mg/100 g) using aseptic surgical conditions previously reported (Lancaster and Weinreich, [2001]; Simasko et al., [2002]). Following a midline incision in the neck, the musculature was retracted and blunt dissection techniques were used to dissociate the vagal trunk from the common carotid artery. High-magnification optics (10–100× dissecting scope; Leica Microsystems, Buffalo Grove, IL, USA) were utilized to visualize the nodose ganglia and facilitate complete removal. Once isolated, nodose ganglia were desheathed and digested in Ca^2+/Mg^2+ free Hank’s Balanced Salt Solution containing 1 mg/mL of both Dispase II (Hoffmann La Roche) and Collagenase Type 1A (Sigma Aldrich; 90 min at 37°C in 95% air/5% CO2). Neurons were dispersed by gentle trituration through silicanized pipettes, and then washed in Dulbecco’s Modified Eagle’s Medium (DMEM) supplemented with 10% fetal bovine serum (FBS) and 1% penicillin-streptomycin. Dispersed cells were plated onto poly-lysine coated coverslips and maintained in DMEM+10% FBS (37°C in 95% air/5% CO2). Measurements were made within 24 h of isolation.
# Intracellular calcium measurements were made with the fluorescent Ca^2+ indicator Fura-2 AM (Molecular Probes, Eugene, OR, USA). Manipulations were made at room temperature in a physiological saline bath (in mM: 140 NaCl, 5 KCl, 2 CaCl2, 1 MgCl2, 6 glucose, 10 HEPES with pH adjusted to 7.4 with NaOH). High K^+ bath (HiK) had 55 mM KCl with an equimolar reduction of NaCl to 90 mM. Neurons on coverslips were loaded with 1 μM Fura-2-AM for 1 h followed by a 15 min wash for de-esterification. COS-7 cells on coverslips were loaded with 1 μM Fura-2-AM for 20 min followed by a 10 min was for de-esterification. Coverslips were mounted into a closed chamber and constantly perfused with physiological bath. Fluorescence was collected using a Nikon Eclipse Ti inverted microscope (Nikon Instruments Inc., Melville, NY, USA) with 40× oil immersion objective, and an Andor Zyla sCMOS digital camera (Andor, South Windsor, CT, USA). For COS-7 cell experiments, TRPV1-GFP+ cells were identified by imaging using an EGFP filter cube (Nikon) prior to Fura-2 imaging. Cells containing Fura-2 were alternatively excited with 340 nm and 380 nm light and fluorescence monitored at 510 nm. Data points were collected with MetaFluor software at 6 s time points. Ratios of fluorescence intensity were converted to Ca^2+ concentrations with a standard curve. Peak calcium responses were quantified, analyzed and compared statistically.
# For each experiment, data were collected from three to four nodose ganglion cell cultures or plating of the clonal cells (COS-7). When possible, protocols were designed to be within subject and analyzed using repeated measures ANOVA followed by post hoc comparisons against control. Otherwise unpaired T-tests were used to compare between groups. Parameters of dose-response relationships (EC50, slope, maximum) were determined by sigmoid fit of the data. For antagonist studies (ruthenium red (RR), etc.) all neurons received each treatment and were compared using within subject t-tests. Data are expressed as the average ± SEM. Statistical analysis was performed using SigmaStat software (Systat Software Inc., San Jose, CA, USA).
# TRPV1 [2] = biological target: T1, TRPV1; test: Whole-cell patch-clamp current recordings in dissociated nodose ganglion neurons; format: cell-based
# Experimental: as §1
# Liquid junction potentials were not corrected.
# [3] = tested on: vagal afferent neurons taken from TRPV1 KO mice; test: Fura-2 calcium imaging in vagal afferent neurons from TRPV1 KO mice; format: cell-based, mouse; conditions: any concentration tested, n = 15
# Experimental: Male Sprague Dawley rats (120–250 g, Simonsen Laboratories) and male TRPV1 knockout mice (TRPV−/−) (20–30 g) (B6.129X1-Trpv1^tm1Jul/J, Jackson Laboratories) were used under procedures approved by the IACUC at Washington State University. Animals were housed under 12 h light/12 h dark conditions and fed standard pellet chow ad libitum. This study was carried out in accordance with the recommendations of the Guide for the Care and Use of Laboratory Animals, as drafted, updated and published by National Research Council. […]
# (§2) Intracellular calcium measurements were made with the fluorescent Ca^2+ indicator Fura-2 AM (Molecular Probes, Eugene, OR, USA). […] Fluorescence was collected using a Nikon Eclipse Ti inverted microscope (Nikon Instruments Inc., Melville, NY, USA) with 40× oil immersion objective, and an Andor Zyla sCMOS digital camera (Andor, South Windsor, CT, USA). […] Cells containing Fura-2 were alternatively excited with 340 nm and 380 nm light and fluorescence monitored at 510 nm. […] Ratios of fluorescence intensity were converted to Ca^2+ concentrations with a standard curve. Peak calcium responses were quantified, analyzed and compared statistically.
# [4] = tested on: recombinant rat TRPV1 (TRPV1-GFP); test: Fura-2 calcium imaging in COS-7 cells transfected with TRPV1-GFP; format: cell-based; conditions: COS-7 TRPV1-GFP; AEA n = 453 cells, CAP n = 492 cells
# Experimental: (§3) To generate TRPV1-GFP, the full-length rat TRPV1 coding region (NCBI accession number NM_031982.1) without stop codon was PCR amplified from nodose ganglion cDNA using the primers below and inserted into the HindIII and EcoRI sites of pEGFP-N1 (Clontech).
# Clonal COS-7 cells (ATCC® Manassas, VA, USA) were plated on glass coverslips at a density of 250,000 cells per well of a 6-well tissue culture plate. HEK293 cells (ATCC® Manassas, VA, USA) were plated on glass coverslips at a density of 50,000 cells per well of a 12-well plate. COS-7 and HEK293 cells were maintained in DMEM (Invitrogen), 10% FCS (Atlanta Biologicals), 25 units/ml penicillin and 25 μg/ml streptomycin (Sigma). […]
# as §2
# [5] = tested on: T2, recombinant rat TRPV1 (TRPV1-GFP); test: Whole-cell patch-clamp in HEK293 cells transfected with TRPV1-GFP; format: cell-based; conditions: for current reversal potential: current-voltage plots, n = 9 cells
# T2 construct: expressed in transfected cells; host or cells: HEK293 cells (ATCC), transient transfection with lipofectamine 2000
# Experimental: as §3
# Clonal COS-7 cells (ATCC® Manassas, VA, USA) were plated on glass coverslips at a density of 250,000 cells per well of a 6-well tissue culture plate. HEK293 cells (ATCC® Manassas, VA, USA) were plated on glass coverslips at a density of 50,000 cells per well of a 12-well plate. COS-7 and HEK293 cells were maintained in DMEM (Invitrogen), 10% FCS (Atlanta Biologicals), 25 units/ml penicillin and 25 μg/ml streptomycin (Sigma). Approximately 24 h after plating, media was replaced with DMEM, 10% FCS without pen/strep and cells were transiently transfected overnight. COS-7 cells were transfected with 2 μg of TRPV1-GFP and 2.4 μl lipofectamine 2000 (Invitrogen) per well. HEK293 cells were transfected with 1 μg of TRPV1-GFP and 1.2 μl lipofectamine 2000 per well. COS-7 cells were used for calcium imaging and HEK293 cells were used for electrophysiological recordings 1–2 days following transfection.
# Whole cell recordings were performed on dissociated nodose ganglion neurons or transfected HEK293 cells using an inverted Olympus IX50 microscope and on NTS neurons contained in horizontal brainstem slices using an upright Nikon FN1 microscope. For HEK293 cell experiments, TRPV1-GFP+ cells were identified visually using 488 nm light illuminations prior to patching. […]
# Whole cell currents taken from isolated nodose ganglion cells or transfected HEK 293 cells were normalized to the membrane capacitance to control for variability in cell size. […] For brainstem slice recordings the digitized waveforms of synaptic events were analyzed using an event detection and analysis program (MiniAnalysis, Synaptosoft, Decatur, GA, USA) for all quantal synaptic currents and Clampfit 10 (Molecular Devices) for all ST-stimulated currents. All events >10 pA were counted for frequency values. […]
# second-order NTS neurons = test: Spontaneous glutamate release (sEPSCs) onto second-order NTS neurons in horizontal brainstem slices; format: cell-based, rat
# [6] = CAP 1 μM bath application, n = 13
smiles,measurement,setting,value
"N.N.N.N.N.N.N.N.N.N.N.N.N.N.[Cl-].[Cl-].[Cl-].[Cl-].[Cl-].[Cl-].[O-2].[O-2].[Ru+3].[Ru+3].[Ru+4] [RR, ruthenium red]",effect on AEA-induced increase in cytosolic calcium,TRPV1 [1]; RR 1 μM pretreatment,eliminated
same,effect on CAP-induced increase in cytosolic calcium,TRPV1 [1]; RR 1 μM pretreatment,eliminated
COc1cccc(NC(=O)/C=C/c2ccc(Cl)cc2)c1 [SB366791],effect on AEA-induced increase in cytosolic calcium,TRPV1 [1]; SB366791 10 μM pretreatment,eliminated
same,effect on CAP-induced increase in cytosolic calcium,TRPV1 [1]; SB366791 10 μM pretreatment,eliminated
"CCCCC/C=C\C/C=C\C/C=C\C/C=C\CCCC(=O)NCCO [AEA, anandamide]",EC50,"TRPV1 [1]; cultured vagal afferent neurons, Fura-2, sigmoid fit, AM251 present for AEA, read-out: EC50 for Calcium (peak cytosolic calcium)",1.95 ± 0.36 µM
same,calcium response to 1st AEA exposure (time matched control),"TRPV1 [1]; repeated AEA, 1st response, N = 12",113 ± 26
same,calcium response to 2nd AEA exposure (time matched control),"TRPV1 [1]; repeated AEA, 2nd response, N = 12, P = 0.002 vs 1st",43 ± 13
same,EC50,TRPV1 [2],9.8 ± 1.07 µM
same,effect of addition of extracellular bath calcium on initial inward current,"TRPV1 [2]; AEA applied in calcium free bath, then calcium containing bath, n = 8",significantly reduced
same,inward current following removal of bath calcium vs standard bath,"TRPV1 [2]; saturating AEA 30 μM, bath calcium 2 mM vs calcium free, n = 6",significantly larger
same,cytosolic calcium increase in TRPV1 KO neurons,[3],failed to produce a calcium increase
same,"peak calcium response, smaller compared to CAP",[4],~ 14%
same,current reversal potential,[5],5 mV
same,"current change, smaller than CAP","[5]; physiological bath, Vm = −60 mV",~ 52%
same,"change of any sEPSC parameter (frequency, amplitude, decay-time constant)","second-order NTS neurons; AEA 30 μM, n = 16",failed to produce a significant change
"COc1cc(CNC(=O)CCCC/C=C/C(C)C)ccc1O [CAP, capsaicin]",effect of removal of bath calcium on average amplitude of induced current,"TRPV1 [2]; saturating CAP 10 μM, bath calcium 2 mM vs calcium free, n = 8",did not change
same,current reversal potential,[5],5 mV
same,change of sEPSC event amplitude or decay kinetics,second-order NTS neurons; [6],no significant changes
same,change of spontaneous glutamate release (sEPSC frequency),second-order NTS neurons; [6],dramatic increase
